# Activity calls are given as the source filed them. The rule behind the calls is not given here.
# Assays:
# [1] = tested on: OPM-2; assay: Antiproliferative activity against NSD2 translocated human OPM-2 cells assessed as inhibition of cell growth incubated for 6 days by CCK-8 assay; type: functional, cell-based; conditions: OPM-2, 144 h
# [2] = tested on: Daudi; assay: Antiproliferative activity against human Daudi cells assessed as inhibition of cell growth incubated for 6 days by CCK-8 assay; type: functional, cell-based; conditions: 144 h
# [3] = tested on: KMS-11; assay: Induction of apoptosis in human KMS-11 cells assessed as late apoptotic cells at 0.2 uM incubated for 72 hrs by Annexin V-FITC/PI staining based flow cytometry analysis (reference value: 6.47%); type: functional
# [4] = target: Ras-related protein R-Ras2 (Homo sapiens) (UniProt P62070); assay: Inhibition of RRAS2 transcriptional activation in human KMS-11 cells assessed as reduction in H3K36me2 level in promoter region by ChIP-qPCR analysis; type: cell-based
# Chain of Ras-related protein R-Ras2 (Homo sapiens) (P62070 whole entry): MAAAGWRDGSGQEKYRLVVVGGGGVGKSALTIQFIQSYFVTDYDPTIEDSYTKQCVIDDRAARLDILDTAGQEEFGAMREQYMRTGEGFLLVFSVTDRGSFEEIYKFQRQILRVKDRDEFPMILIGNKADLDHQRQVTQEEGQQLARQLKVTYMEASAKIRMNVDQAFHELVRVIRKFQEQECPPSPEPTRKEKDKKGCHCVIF
# [5] = tested on: U-937; assay: Antiproliferative activity against human U-937 cells harboring wild type NSD2 assessed as inhibition of cell growth incubated for 6 days by CCK-8 assay; type: functional, cell-based; conditions: U-937, 144 h
# [6] = target: Histone-lysine N-methyltransferase NSD2 (Homo sapiens) (UniProt O96028); assay: Binding affinity to human recombinant NSD2 (941 to 1240 residues) at 200 uM by saturation transfer difference based NMR analysis
# Chain of Histone-lysine N-methyltransferase NSD2 (Homo sapiens) (O96028 whole entry, the tested form may be a part): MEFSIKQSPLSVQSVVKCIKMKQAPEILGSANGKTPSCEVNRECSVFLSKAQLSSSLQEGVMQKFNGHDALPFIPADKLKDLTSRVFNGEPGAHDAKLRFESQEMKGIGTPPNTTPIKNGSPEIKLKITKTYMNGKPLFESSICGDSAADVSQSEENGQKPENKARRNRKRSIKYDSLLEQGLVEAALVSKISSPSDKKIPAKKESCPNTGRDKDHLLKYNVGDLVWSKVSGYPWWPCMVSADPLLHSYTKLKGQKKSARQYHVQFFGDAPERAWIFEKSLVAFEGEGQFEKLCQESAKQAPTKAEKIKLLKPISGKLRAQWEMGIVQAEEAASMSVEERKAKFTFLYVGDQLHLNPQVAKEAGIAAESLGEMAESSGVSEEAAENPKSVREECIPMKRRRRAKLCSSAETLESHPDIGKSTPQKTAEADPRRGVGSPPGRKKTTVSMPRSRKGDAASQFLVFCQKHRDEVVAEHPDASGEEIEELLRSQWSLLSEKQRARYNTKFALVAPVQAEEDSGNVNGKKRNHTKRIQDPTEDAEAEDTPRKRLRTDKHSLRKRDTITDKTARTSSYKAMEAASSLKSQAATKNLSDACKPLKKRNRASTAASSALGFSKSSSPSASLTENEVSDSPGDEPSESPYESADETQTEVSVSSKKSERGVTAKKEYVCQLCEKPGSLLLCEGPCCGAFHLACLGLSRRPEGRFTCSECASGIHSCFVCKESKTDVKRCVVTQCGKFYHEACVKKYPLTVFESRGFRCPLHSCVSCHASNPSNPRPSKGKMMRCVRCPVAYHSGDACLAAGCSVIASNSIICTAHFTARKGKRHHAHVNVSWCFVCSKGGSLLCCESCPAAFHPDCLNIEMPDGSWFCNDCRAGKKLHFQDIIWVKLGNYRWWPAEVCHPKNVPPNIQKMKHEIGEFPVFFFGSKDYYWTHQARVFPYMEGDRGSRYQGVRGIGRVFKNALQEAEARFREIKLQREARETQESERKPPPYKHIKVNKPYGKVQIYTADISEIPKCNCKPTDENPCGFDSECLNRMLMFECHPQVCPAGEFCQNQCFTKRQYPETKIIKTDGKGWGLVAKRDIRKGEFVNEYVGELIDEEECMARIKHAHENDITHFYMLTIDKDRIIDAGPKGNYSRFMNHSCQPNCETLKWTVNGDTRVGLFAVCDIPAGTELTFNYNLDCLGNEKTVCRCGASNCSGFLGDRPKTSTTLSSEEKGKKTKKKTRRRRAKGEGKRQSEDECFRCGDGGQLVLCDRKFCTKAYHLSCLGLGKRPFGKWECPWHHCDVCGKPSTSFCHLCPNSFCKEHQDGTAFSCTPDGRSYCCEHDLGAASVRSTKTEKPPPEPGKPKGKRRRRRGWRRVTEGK
# [7] = tested on: KMS-11; assay: Antitumor activity against human KMS-11 cells xenografted in SCID mouse assessed as tumor growth inhibition at 150 mg/kg, po administered daily for 21 days and measured every 3 days relative to control; type: functional; conditions: KMS-11, 504 h, time 21 day, read-out: TGI
# [8] = Toxicity in SCID mouse xenografted with human KMS-11 cells assessed as body weight loss at 75 to 150 mg/kg, po administered daily for 21 days and measured every 3 days; type: organism-based; conditions: in vivo, 504 h, dose 75-150 mg/kg, time 21 day
# [9] = tested on: KMS-11; assay: Induction of apoptosis in human KMS-11 cells assessed as upregulation of BID protein expression at 0.2 to 0.8 uM by Western blot analysis; type: functional, cell-based; conditions: dose 0.2-0.8 µM
smiles,measurement,setting,value
CC#CC(=O)NC12CC(NC3=C(Cl)C(=O)c4ncccc4C3=O)(C1)C2,IC50,[1],2.09 µM
same,IC50,[2],12.8 µM
same,Activity,[3],7.79%
same,inhibition,[4],Active
same,IC50,[5],4.9 µM
same,Activity,[6],Active
same,inhibition in vivo at 150 mg/kg,[7],58.4%
same,Activity,[8],Non-Toxic
same,Activity,[9],Active

# From ChEMBL document CHEMBL5316318, “Structural Modification and Pharmacological Evaluation of Substituted Quinoline-5,8-diones as Potent NSD2 Inhibitors” (J Med Chem, 2023)
